We go through ten compounds from patent US20180282818A1, “Therapeutic Cancer Treatments Based on TP53 Gene Mutations” (The Wistar Institute of Anatomy and Biology, priority 2015, published 2018).

Type in all cases: cell-based
One assay relates to S47 cells. As to the kind of experiment: Resazurin cytotoxicity screening, S47 cells. To be noted: for pEC50: S47 cells, 72 hours, resazurin fluorescence, normalized to doxorubicin and DMSO; for Fold-sensitive, S47 / Fold-resistant, S47: S47 versus WT EC50. Here is the method: (§1) The screening methods were performed as follows. S47 and wild type cells were plated at a density of 750 cells/well in a total volume of 50 μL in 384 well Greiner microplates. The cells were allowed to attach overnight at 37° C. and then dosed with 50 nL of compound serially diluted in DMSO. Following compound addition, the assay plates were incubated at 37° C. for 72 hours, followed by the addition of 5 μL of […] Resazurin. The plates were incubated at 37° C. for 8-10 hours and then fluorescence was measured using a Perkin Elmer Envision plate reader (excitation at 530-560 nm, emission at 590 nm). Raw fluorescent counts were uploaded into Spotfire and normalized to doxorubicin (positive control) and DMSO (negative control) treated wells (n=12/plate). EC50 values were calculated by applying a logistic regression curve fit and expressed as μM compound that was effective in killing 50% of the cell population at 72 hours.
For orientation: Alamar Blue is a resazurin reagent that responds to reducing activity.

The next assay relates to wild type cells. As to the kind of experiment: Resazurin cytotoxicity screening, wild type cells. To be noted: 72 hours, resazurin fluorescence, normalized to doxorubicin and DMSO, read-out: WT EC50. How it is done: as §1
The subject of the next assay is S47 tumor cells. The assay is described as follows: Sensitivity of E1A/Ras-transformed S47 tumor cells compared to WT cells. As to conditions: S47 and WT cells expressing E1A/Ras. How it is done: S47 and WT cells expressing E1A/Ras were analyzed.
A tumorigenic (transformed) version of WT and S47 cells may be created as follows. WT and S47 cells were transfected with two oncogenes (E1A and Ras).

pEC50: −log10 of the molar value.

In general, pEC50 refers to the negative decadic logarithm of the EC50, by convention in mol/L. Turning to `COc1ncc(-c2ccc3nccc(-c4ccnnc4)c3c2)cc1NS(=O)(=O)c1ccc(F)cc1F` [GSK2126458, 2,4-difluoro-N-(2-methoxy-5-(4-(pyridazin-4-yl)quinolin-6-yl)pyridin-3-yl)benzenesulfonamide], in the assay on S47 cells, the negative logarithm of the EC50 (pEC50) is 9.34 and the “Fold-sensitive, S47” value is on record as 3.26. Moreover, the negative logarithm of the EC50 (pEC50) in the assay on wild type cells is 8.82.

Consider `CC[C@@]1(O)C(=O)OCc2c1cc1n(c2=O)Cc2cc3ccccc3nc2-1` [camptothecin], for which the “Sensitivity of S47 tumor cells compared to WT cells” value (shortened to “Sensitivity … compared to WT cells”) with S47 tumor cells is on record as “less sensitive”.

With `N.N.[Cl][Pt][Cl]` [Cisplatin, (SP-4-2)-diamminedichloroplatinum(II)], in the assay with S47 cells, the pEC50 is 6.10 and the “Fold-resistant, S47” value stood at 2.3. The “Sensitivity … compared to WT cells” value in the assay with S47 tumor cells is “more sensitive”. Also, the pEC50 in the assay on wild type cells was 6.46.

For the compound `COc1cccc2cc(-c3nc([C@H]4CC[C@H](C(=O)O)CC4)n4ncnc(N)c34)[nH]c12` [OSI027, trans-4-[4-amino-5-(7-methoxy-1H-indol-2-yl)imidazo[5,1-f][1,2,4]triazin-7-yl]cyclohexanecarboxylic acid], in the assay on S47 cells, the pEC50 is 6.76 and the “Fold-sensitive, S47” value is given as 4.3. In addition, the “Sensitivity … compared to WT cells” value in the assay on S47 tumor cells is “more sensitive”. Besides, the pEC50 in the assay with wild type cells is 6.13.

For `COc1cccc2c1C(=O)c1c(O)c3c(c(O)c1C2=O)C[C@@](O)(C(=O)CO)C[C@@H]3O[C@H]1C[C@H](N)[C@H](O)[C@H](C)O1` [Doxorubicin], in the assay with S47 cells, the pEC50 is 6.53 and the “Fold-resistant, S47” value is reported as 2. The pEC50 in the assay on wild type cells was 6.84.

For `Cc1cn(-c2cc(NC(=O)c3ccc(C)c(Nc4nccc(-c5cccnc5)n4)c3)cc(C(F)(F)F)c2)cn1` [AMN107], in the assay with S47 cells, the pEC50 was below 5.00 and the “Fold-resistant, S47” value was 28. The negative-log EC50 (pEC50) in the assay on wild type cells was 6.45.

For `CC(C)n1nc(-c2ccc3oc(N)nc3c2)c2c(N)ncnc21` [INK128, 5-(4-amino-1-isopropyl-1H-pyrazolo[3 ,4-d]pyrimidin-3-yl)benzo[d]oxazol-2-amine], in the assay with S47 cells, the negative logarithm of the EC50 (pEC50) was 8.02 and the “Fold-sensitive, S47” value is recorded as 1.5. In addition, the pEC50 in the assay with wild type cells was 7.84.

Turning to `C[C@@H]1COCCN1c1cc(C2([S@](C)(=N)=O)CC2)nc(-c2cc[nH]c3nccc2-3)n1` [AZD6738], in the assay with S47 cells, the pEC50 is below 5.00 and the “Fold-resistant, S47” value stood at 26. For the same compound, in the assay with wild type cells, the negative-log EC50 (pEC50) was 6.42.

On to `Cc1[nH]c2ccccc2c1CCNCc1ccc(/C=C/C(=O)NO)cc1` [LBH589], for which the values for the pEC50 with S47 cells and in the assay on wild type cells were 8.18 and 8.49, respectively. Further, the “Fold-resistant, S47” value with S47 cells is 2.

`CS(=O)(=O)N1CCN(Cc2cc3nc(-c4cccc5[nH]ncc45)nc(N4CCOCC4)c3s2)CC1` [GDC0941, 2-(1H-indazol-4-yl)-6-((4-(methylsulfonyl)piperazin-1-yl)methyl)-4-morpholinothieno[3,2-d]pyrimidine]: in the assay on S47 cells, the pEC50 is 7.92 and the “Fold-sensitive, S47” value is 2.33. In the assay with wild type cells, the pEC50 was 7.55.
